In the supplement of paper PMC10733146:

Columns and labels:
Assay in all cases: viability relative to DMSO control (fraction); higher = less drug effect (more viable cells)
Conditions in all cases: 48 h
[1] = tested on: primary AML patient cells (S060)
Procedure, shortened: (§1)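 In 384-well plates with compounds pre-plated at five concentrations (one well per concentration), primary mononuclear tumour cells were plated at 4 × 10^4 cells per well. The cells came from blood or bone marrow by Ficoll isolation or from processed lymph node, and were used fresh or cryopreserved. Culture ran for 48 h at 37 °C and 5% CO2 in RPMI-1640 containing penicillin/streptomycin, L-glutamine and human serum. Viability was read as CellTiter-Glo luminescence, normalised to the median of 16 inner DMSO wells.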

[2] = tested on: primary DLBCL patient cells (S049)
Procedure, shortened: as §1

[3] = tested on: primary CLL patient cells (S043)
Procedure, shortened: as §1

[4] = tested on: primary DLBCL patient cells (S076)
Procedure, shortened: as §1

[5] = tested on: primary ALL patient cells (S048)
Procedure, shortened: as §1

[6] = tested on: primary AML patient cells (S056)
Procedure, shortened: as §1

[7] = tested on: primary AML patient cells (S079)
Procedure, shortened: as §1

[8] = tested on: primary ALL patient cells (S088)
Procedure, shortened: as §1

[9] = tested on: primary AML patient cells (S089)
Procedure, shortened: as §1

[10] = tested on: primary T-NHL patient cells (S058)
Procedure, shortened: as §1

[11] = tested on: primary AML patient cells (S072)
Procedure, shortened: as §1

[12] = tested on: primary AML patient cells (S006)
Procedure, shortened: as §1

[13] = tested on: primary AML patient cells (S071)
Procedure, shortened: as §1

[14] = tested on: primary CLL patient cells (S031)
Procedure, shortened: as §1

[15] = tested on: primary MCL patient cells (S063)
Procedure, shortened: as §1

[16] = tested on: primary DLBCL patient cells (S082)
Procedure, shortened: as §1

[17] = tested on: primary AML patient cells (S055)
Procedure, shortened: as §1

CC[C@H](Nc1ncnc2[nH]cnc12)c1nc2cccc(F)c2c(=O)n1-c1ccccc1 [Idelalisib]
viability ([1]; 0.0032 µM): 1.04 | viability ([1]; 0.016 µM): 1.02 | viability ([1]; 0.08 µM): 1.03 | viability ([1]; 0.4 µM): 1.08 | viability ([1]; 2 µM): 1.03 | viability ([2]; 0.0032 µM): 1.02 | viability ([2]; 0.016 µM): 1.02 | viability ([2]; 0.08 µM): 0.968 | viability ([2]; 0.4 µM): 1.02 | viability ([2]; 2 µM): 0.94 | viability ([3]; 0.0032 µM): 0.909 | viability ([3]; 0.016 µM): 0.805 | viability ([3]; 0.08 µM): 0.719 | viability ([3]; 0.4 µM): 0.745 | viability ([3]; 2 µM): 0.691 | viability ([4]; 0.0032 µM): 0.935 | viability ([4]; 0.016 µM): 0.879 | viability ([4]; 0.08 µM): 0.825 | viability ([4]; 0.4 µM): 0.832 | viability ([4]; 2 µM): 0.735 | viability ([5]; 0.0032 µM): 1.01 | viability ([5]; 0.016 µM): 0.934 | viability ([5]; 0.08 µM): 0.861 | viability ([5]; 0.4 µM): 0.751 | viability ([5]; 2 µM): 0.752 | viability ([6]; 0.0032 µM): 1.02 | viability ([6]; 0.016 µM): 1.02 | viability ([6]; 0.08 µM): 0.954 | viability ([6]; 0.4 µM): 0.896 | viability ([6]; 2 µM): 0.911 | viability ([7]; 0.0032 µM): 1.01 | viability ([7]; 0.016 µM): 0.954 | viability ([7]; 0.08 µM): 0.906 | viability ([7]; 0.4 µM): 0.844 | viability ([7]; 2 µM): 0.793 | viability ([8]; 0.0032 µM): 1.02 | viability ([8]; 0.016 µM): 0.948 | viability ([8]; 0.08 µM): 0.895 | viability ([8]; 0.4 µM): 0.914 | viability ([8]; 2 µM): 0.831 | viability ([9]; 0.0032 µM): 0.965 | viability ([9]; 0.016 µM): 0.739 | viability ([9]; 0.08 µM): 0.924 | viability ([9]; 0.4 µM): 0.671 | viability ([9]; 2 µM): 0.58 | viability ([10]; 0.0032 µM): 0.988 | viability ([10]; 0.016 µM): 0.916 | viability ([10]; 0.08 µM): 0.961 | viability ([10]; 0.4 µM): 1.08 | viability ([10]; 2 µM): 0.985 | viability ([11]; 0.0032 µM): 0.995 | viability ([11]; 0.016 µM): 0.883 | viability ([11]; 0.08 µM): 0.922 | viability ([11]; 0.4 µM): 0.82 | viability ([11]; 2 µM): 0.803 | viability ([12]; 0.0032 µM): 1.02 | viability ([12]; 0.016 µM): 0.97 | viability ([12]; 0.08 µM): 0.943 | viability ([12]; 0.4 µM): 0.885 | viability ([12]; 2 µM): 0.882 | viability ([13]; 0.0032 µM): 0.959 | viability ([13]; 0.016 µM): 0.868 | viability ([13]; 0.08 µM): 0.812 | viability ([13]; 0.4 µM): 0.733 | viability ([13]; 2 µM): 0.662 | viability ([14]; 0.0032 µM): 0.974 | viability ([14]; 0.016 µM): 0.861 | viability ([14]; 0.08 µM): 0.731 | viability ([14]; 0.4 µM): 0.654 | viability ([14]; 2 µM): 0.569 | viability ([15]; 0.0032 µM): 0.918 | viability ([15]; 0.016 µM): 0.792 | viability ([15]; 0.08 µM): 0.73 | viability ([15]; 0.4 µM): 0.693 | viability ([15]; 2 µM): 0.595 | viability ([16]; 0.0032 µM): 1.05 | viability ([16]; 0.016 µM): 0.893 | viability ([16]; 0.08 µM): 0.812 | viability ([16]; 0.4 µM): 0.768 | viability ([16]; 2 µM): 0.668 | viability ([17]; 0.0032 µM): 1 | viability ([17]; 0.016 µM): 0.961 | viability ([17]; 0.08 µM): 0.909 | viability ([17]; 0.4 µM): 0.972 | viability ([17]; 2 µM): 0.875
